Values after ≈ are worked out from the molar mass of the structure shown.
Test system: Entamoeba histolytica
Assay: Antiamoebic activity against Entamoeba histolytica
Type: functional, organism-based
Conditions: Entamoeba histolytica; read-out: IC50

SMILES	IC50 [µg/mL]
O=C(O)C1=CO[C@H](O[C@@H]2O[C@H](CO)[C@@H](O)[C@H](O)[C@H]2O)[C@H]2[C@@H]1C=C[C@@]21C=C(C(O)c2ccc(O)cc2)C(=O)O1 (stereo not given in full) [GAERTNERIC ACID]	7.1 (≈ 13.3 µM)
COC(=O)C1=CO[C@H](O[C@@H]2O[C@H](CO)[C@@H](O)[C@H](O)[C@H]2O)[C@H]2[C@@H]1C=C[C@@]21C=C(C(O)c2ccc(O)cc2)C(=O)O1 (stereo not given in full) [GAERTNEROSIDE]	4.3 (≈ 7.84 µM)
O=c1c(O)c(-c2ccccc2)oc2cc(O)cc(O)c12 [GALANGIN]	159 (≈ 587 µM)
COC(=O)c1cc(O)c(O)c(O)c1 [GALLIC ACID METHYL ESTER]	22.6 (≈ 123 µM)
O=c1cc(-c2ccc(O)c(O)c2)oc2cc(O[C@@H]3O[C@H](CO)[C@@H](O)[C@H](O)[C@H]3O)cc(O)c12 [GALUTEOLIN]	44.7 (≈ 99.7 µM)
Oc1ccc([C@]23Oc4cc(O)cc(O)c4[C@H](c4c(cc(O)c5c4O[C@H](c4cc(O)c(O)c(O)c4)[C@@H](O)C5)O2)[C@H]3O)cc1 [GERANIN C]	52 (≈ 90.2 µM)
Oc1ccc([C@H]2Oc3c(c(O)cc4c3[C@H]3c5c(O)cc6c(c5O[C@@](c5ccc(O)cc5)(O4)[C@@H]3O)[C@H]3c4c(O)cc(O)cc4O[C@@](c4ccc(O)cc4)(O6)[C@H]3O)C[C@@H]2O)cc1 [GERANIN D]	28.6 (≈ 35.1 µM)
CC[C@](C)(O)C(=O)O[C@H]1C(=O)O[C@@H]2C[C@H]3C(C)=CC(=O)[C@@H](O)[C@]3(C)[C@H]3[C@@]4(O)OC[C@]32[C@@H]1[C@@H](C)[C@H]4O [GLAUCARUBINONE]	0.168 (≈ 0.34 µM)
CC[C@](C)(O)C(=O)O[C@H]1C(=O)O[C@@H]2C[C@H]3C(C)=C[C@H](O)[C@@H](O)[C@]3(C)[C@H]3[C@]4(O)OC[C@]32[C@@H]1[C@@H](C)[C@H]4O [GLAUCARUBIN]	1.57 (≈ 3.16 µM)
CC1=CC(=O)[C@@H](O)[C@]2(C)[C@H]3[C@]4(O)OC[C@]35[C@H]([C@@H](C)[C@H]4O)[C@@H](O)C(=O)O[C@@H]5C[C@@H]12 [GLAUCARUBOLONE]	0.12 (≈ 0.304 µM)
CC1=C[C@H](O)[C@@H](O)[C@]2(C)[C@H]3[C@@]4(O)OC[C@]35[C@H]([C@@H](C)[C@H]4O)[C@@H](O)C(=O)O[C@@H]5C[C@@H]12 [GLAUCARUBOL]	2 (≈ 5.04 µM)
Cc1cc2c(C(C)C)c(O)c(O)c(C=O)c2c(O)c1-c1c(C)cc2c(C(C)C)c(O)c(O)c(C=O)c2c1O [GOSSYPOL]	0.00777 (≈ 0.015 µM)
CC(=O)O[C@H]1C(=O)O[C@@H]2C[C@H]3C(C)=CC(=O)[C@@H](O)[C@]3(C)[C@H]3[C@]4(O)OC[C@]32[C@@H]1[C@@H](C)[C@H]4O [HOLACANTHONE]	0.162 (≈ 0.371 µM)
C[C@@H]1N=C[C@]23C[C@@H](O)[C@H]4[C@@H](CCC5=CC(=O)C=C[C@@]54C)[C@@H]2CC[C@H]13 [HOLANAMINE]	3.96 (≈ 12.2 µM)
C/C=C1/CN(C)CC[C@]23C(=O)C[C@@H]1[C@H]1CO[C@H](O)C(=O)N(c4ccccc42)[C@@H]13 [HOLSTIINE]	24.8 (≈ 64.9 µM)
C/C=C1\CN(C)CC[C@]23C(=O)C[C@@H]1[C@H]1CO[C@H](OC)C(=O)N(c4ccccc42)[C@@H]13 [HOLSTILINE]	24.9 (≈ 62.9 µM)
COc1ccc2cc1Oc1ccc(cc1)C[C@H]1c3c(cc(OC)c(O)c3Oc3cc4c(cc3OC)CCN(C)[C@@H]4C2)CCN1C [HOMOAROMOLINE]	10.5 (≈ 17.3 µM)
O=c1c(O[C@@H]2O[C@H](CO)[C@H](O)[C@H](O)[C@H]2O)c(-c2ccc(O)c(O)c2)oc2cc(O)cc(O)c12 [HYPEROSIDE]	144 (≈ 309 µM)
COc1cc2c3c(c1OC)Oc1ccc(cc1)C[C@H]1c4c(cc(OC)c5c4Oc4ccc(cc4O5)C[C@H]3N(C)CC2)CCN1C [INSULARINE]	6.88 (≈ 11.3 µM)
COc1cc2c3c(c1O)Oc1ccc(cc1)C[C@@H]1c4c(cc(OC)c(O)c4Oc4ccc(cc4)C[C@H]3N(C)CC2)CCN1C [ISOCHONDODENDRINE]	10.5 (≈ 17.7 µM)

SMILES	IC50 [µg/mL]
CN[C@H]1CC[C@@]2(C)C(=CC[C@H]3[C@@H]4CC[C@@H]5[C@H](C)N(C)C[C@@]54CC[C@@H]32)C1 [ISOCONESSIMINE]	20.9 (≈ 61 µM)
COc1ccc2c(c1O)-c1c(OC)c(OC)cc3c1[C@H](C2)N(C)CC3 [ISOCORYDINE]	50.1 (≈ 147 µM)
C/C=C1/CN2CC[C@]34c5ccccc5N(C(C)=O)[C@H]3[C@H](C=O)[C@H]1C[C@H]24 [ISORETULINAL]	24.1 (≈ 71.8 µM)
C/C=C1/CN2CC[C@]34c5ccccc5N(C(C)=O)C3[C@H](CO)[C@H]1C[C@H]24 (stereo not given in full) [ISORETULINE]	21.9 (≈ 64.7 µM)
C/C=C1/CN2CC[C@]34c5ccccc5N(C(C)=O)[C@H]3[C@H]([C@H]3OC[C@@H]5[C@H]6C[C@@H]7N(CC[C@@]78c7ccccc7N3[C@@H]58)C[C@H]6CC)[C@H]1C[C@H]24 [ISOSTRYCHNOBILINE]	20.9 (≈ 33.8 µM)
CC[C@H]1CN2CCC3c4ccc(O)c([C@@H]5CCCN5C)c4NC3[C@@H]2C[C@@H]1C[C@H]1c2[nH]c3ccccc3c2CCN1C (stereo not given in full) [ISOSTRYCHNOPENTAMINE]	10.4 (≈ 18.8 µM)
COc1ccc2cc1Oc1ccc(cc1)C[C@@H]1c3cc(c(OC)cc3CCN1C)Oc1c(OC)c(OC)cc3c1[C@H](C2)N(C)CC3 [ISOTETRANDRINE]	13.8 (≈ 22.2 µM)
COc1ccc2cc1Oc1ccc(cc1)C[C@H]1c3c(cc(OC)c4c3Oc3cc5c(cc3O4)CCN(C)[C@H]5C2)CCN1C [ISOTRILOBINE]	6.22 (≈ 10.8 µM)
C[C@H]1O[C@H](Oc2c(-c3ccc(O)cc3)oc3cc(O)cc(O)c3c2=O)[C@@H](O)[C@@H](O)[C@@H]1O [KAEMPFEROL-3-O-RHAMNOSIDE]	64.7 (≈ 150 µM)
C[C@H]1O[C@H](OC[C@H]2O[C@@H](Oc3c(-c4ccc(O)cc4)oc4cc(O)cc(O)c4c3=O)[C@H](O)[C@@H](O)[C@@H]2O)[C@@H](O)[C@@H](O)[C@@H]1O [KAEMPFEROL-3-O-RUTINOSIDE]	72.5 (≈ 122 µM)
C[C@H]1O[C@H](OC[C@H]2O[C@@H](Oc3cc(O)c4c(=O)c(O)c(-c5ccc(O)cc5)oc4c3)[C@H](O[C@@H]3O[C@H](CO)[C@@H](O)[C@H](O)[C@H]3O)[C@@H](O)[C@@H]2O)[C@@H](O)[C@@H](O)[C@@H]1O [KAEMPFEROL-7-O-RHAMNOSYL-SOPHOROSIDE]	> 125
O=c1c(O)c(-c2ccc(O)cc2)oc2cc(O)cc(O)c12 [KAEMPFEROL]	7.93 (≈ 27.7 µM)
O=c1cc(-c2ccc(O)c(O)c2)oc2cc(O)cc(O)c12 [LUTEOLIN]	17.8 (≈ 62.2 µM)
O=C(O)/C=C/c1ccccc1O[C@@H]1O[C@H](CO)[C@@H](O)[C@H](O)[C@H]1O [MELILOTOSIDE]	12.5 (≈ 38.3 µM)
COC(=O)C1=CO[C@@H](O[C@@H]2O[C@H](CO)[C@@H](O)[C@H](O)[C@H]2O)[C@H]2[C@@H]1C=C[C@@]21C=C(C(O)c2ccc(O)c(OC)c2)C(=O)O1 (stereo not given in full) [METHOXY-GAERTNEROSIDE]	2.3 (≈ 3.98 µM)
CO[C@H]1[C@H](O)[C@@H](O)[C@@H](O)[C@H](O)[C@@H]1O [METHYLINOSITOL]	16.6 (≈ 85.4 µM)
COc1ccc(/C=C/C(=O)O[C@H]2[C@@H]3C=CO[C@@H](O[C@@H]4O[C@H](CO)[C@@H](O)[C@H](O)[C@H]4O)[C@@H]3[C@@]3(CO)O[C@@H]23)cc1O [MINECOSIDE]	0.398 (≈ 0.739 µM)
O=c1c(O)c(-c2cc(O)c(O)c(O)c2)oc2cc(O)cc(O)c12 [MYRICETIN]	115 (≈ 362 µM)
O=C1C[C@@H](c2ccc(O)cc2)Oc2cc(O)cc(O)c21 [NARINGENIN]	92.2 (≈ 339 µM)
C/C=C1/CN2CCc3c(n(C)c4ccccc34)[C@@H]2C[C@@H]1Cc1nccc2c1[nH]c1ccccc12 [NBETA-METHYL USAMBARENSINE]	4.12 (≈ 9.23 µM)

SMILES	IC50 [µg/mL]
COc1cc2c3c(c1O)-c1c(ccc(OC)c1OC)C[C@@H]3NCC2 [NORCORYDINE]	50 (≈ 153 µM)
C/C=C1/CN2CC[C@]34c5ccccc5N(C(C)=O)[C@H]3[C@H](COC(C)=O)[C@H]1C[C@H]24 [O-ACETYLISORETULINE]	23.2 (≈ 61.1 µM)
COc1cc2c3cc1Oc1c(O)c(OC)cc4c1[C@@H](Cc1ccc(O)c(c1)Oc1ccc(cc1)C[C@@H]3N(C)CC2)N(C)CC4 [OBAMEGINE]	18.3 (≈ 30.8 µM)
CC[C@H]1CN2CCC3c4ccccc4NC3[C@@H]2C[C@@H]1C[C@H]1NCCc2c1[nH]c1ccccc21 (stereo not given in full) [OCHROLIFUANINE A]	1.3 (≈ 2.95 µM)
COc1cc(O)c2c(=O)c(O)c(-c3ccc(OC)c(O)c3)oc2c1 [OMBUINE]	70.3 (≈ 213 µM)
COc1ccc2cc1Oc1ccc(cc1)C[C@@H]1c3cc(c(OC)cc3CCN1C)Oc1c(OC)c(OC)cc3c1[C@@H](C2)N(C)CC3 [PHAEANTHINE]	10.8 (≈ 17.4 µM)
COc1cc(O)c2c(c1)C(=O)c1cc(C)cc(O)c1C2=O [PHYSCION]	12.7 (≈ 44.7 µM)
O=C1C[C@@H](c2ccccc2)Oc2cc(O)cc(O)c21 [PINOCEMBRIN]	80.8 (≈ 315 µM)
COc1cc(O)c2c(c1)O[C@H](c1ccccc1)CC2=O [PINOSTROBIN]	184 (≈ 682 µM)
CC[C@H]1CN2CCc3cc(OC)c(OC)cc3[C@@H]2C[C@@H]1CC1=NCCc2cc(O)c(OC)cc21 [PSYCHOTRINE]	8.19 (≈ 17.6 µM)
COC1=C[C@@H](C)[C@@H]2C[C@H]3OC(=O)C[C@H]4C(C)=C(OC)C(=O)[C@H]([C@@]2(C)C1=O)[C@@]34C [QUASSIN]	0.5 (≈ 1.29 µM)
C[C@H]1O[C@H](Oc2c(-c3ccc(O)c(O)c3)oc3cc(O)cc(O)c3c2=O)[C@@H](O)[C@@H](O)[C@@H]1O [QUERCETIN-3-O-RHAMNOSIDE]	84.7 (≈ 189 µM)
O=c1c(O)c(-c2ccc(O)c(O)c2)oc2cc(O)cc(O)c12 [QUERCETIN]	114 (≈ 378 µM)
C=C[C@H]1CN2CC[C@H]1C[C@@H]2[C@@H](O)c1ccnc2ccc(OC)cc12 [QUINIDINE]	16.6 (≈ 51.2 µM)
C=C[C@H]1CN2CC[C@H]1C[C@@H]2C(=O)c1ccnc2ccc(OC)cc12 [QUINIDINONE]	7.4 (≈ 23 µM)
C=C[C@H]1CN2CC[C@H]1C[C@H]2[C@H](O)c1ccnc2ccc(OC)cc12 [QUININE]	14.8 (≈ 45.6 µM)
C/C=C1/CN2CC[C@]34c5ccccc5N(C(C)=O)[C@H]3[C@@H](C=O)[C@@H]1C[C@H]24 [RETULINAL]	25.2 (≈ 74.9 µM)
C/C=C1\CN2CC[C@]34c5ccccc5N(C(C)=O)[C@H]3[C@@H](CO)[C@H]1C[C@H]24 [RETULINE]	21.9 (≈ 64.7 µM)
O=c1c(O[C@@H]2OC[C@@H](O)[C@H](O)[C@H]2O)c(-c2ccc(O)c(O)c2)oc2cc(O)cc(O)c12 [REYNOUTRIN]	109 (≈ 251 µM)
COC1=C[C@]23CCN(C)[C@H](Cc4ccc(OC)c(O)c42)C3=CC1=O [SALUTARIDINE]	50 (≈ 153 µM)
